Source: patent US20100168420A1, “Taxol Derivatives With Antitumor Activity” (priority 2007, published 2010)
Marks after values point to notes of the source that are not given here.

Legend:
human A549 NSCLC tumors [1] = test: Therapeutic effects of SHR1021-47 against xenografts of human A549 NSCLC tumors in nude mice (Test Example 2); format: in vivo, BALB/cA-nude mice; settings: 12 mg/kg iv, d0, d7
Experimental: Animal species: BALB/cA-nude mice.
Numbers of animals: 12 mice in control group, 6 mice in medication administration team.
Cell culture: Human A549 NSCLC tumor cells were cultured in vitro remaining on logarithmic growth phase.
Transplantation: Take the prepared cells to inoculate subcutaneously to the nude mice.
Inoculation: Take the tumor lump to inoculate in one side of oxter on the condition of asepsis.
Grouping and dose design: Measure the diameter of transplantation tumor by sliding caliper. After tumors grew to 100-250 mm^3, mice were randomly divided into groups of Shr1021-47 (8 mg/kg, 12 mg/kg, 16 mg/kg) and Taxotere (12 mg/kg).
Administration route and time: iv administration. Shr1021-47 and Taxotere were administrated on d0, d7, 2 times in all. Measure the volume of tumor and weigh the mice 2-3 times per week.
Calculate the relative tumor volume (RTV) according to the measurements. The formula is: RTVI=Vt/V0. V0 refers to the volume of tumor on d0; Vt refers to the volume of tumor on every measurement. The index of antitumor activity is T/C(%). The formula is: T/C(%)=TRTV/CRTV×100, TRTV: RTV of treatment group, CRTV: RTV of control group.

human A549 NSCLC tumors [2] = test: Therapeutic effects of SHR-110008 and Taxotere against xenografts of human A549 NSCLC tumors in nude mice (Test Example 1); settings: for RTV X ± SD / T/C (%) / T/C (%) (weighing method) / Weight of tumors (g) x ± SD: 14th day; for T/C (%): from RTV; for T/C (%) (weighing method): from weight of tumors; for Weight of tumors (g) x ± SD: weighing method; for Body weight (g) d0 / TV (X ± SD, mm^3) d0: d0: time of the first dosage; for Body weight (g) dn / TV (X ± SD, mm^3) dn: dn: 14th day after the first dosage
Experimental: Numbers of animals: 9 mice in control group, 5 mice in medication administration team.
Animals were adapted in animal house for 1 week and were hypodermic inoculated human A549 NSCLC tumors. After tumors grew to 100-300 mm^3, mice were randomly divided into teams of SHR-110008 and Taxotere(d0). The doses of SHR-110008 were 10 and 16 mg/kg, and the doses of Taxotere were 12 and 19 mg/kg, separately. The route of administration is intravenous injection. SHR-110008(10 mg/kg) and Taxotere (12 mg/kg) were administrated on d0, d4, d8, a total of three times. SHR-110008(16 mg/kg) and Taxotere (19 mg/kg) were administrated on d0, d7, a total of two times. The volume of tumors and weights of the mice were measured for 2-3 times per week. The calculation formula of the volume of tumor (V) is: V=1/2×a×b^2, a: length of tumor, b: width of tumor.

[3] = dn: 14th day after the first dosage
[4] = under the suitable dose schedule, conclusion in words

CC(=O)O[C@@]12CO[C@@H]1C[C@H](O)[C@@]1(C)C(=O)[C@H](O)C3=C(C)[C@@H](OC(=O)[C@H](O)[C@@H](NC(=O)OC(C)(C)C)c4ccccc4)C[C@@](O)([C@@H](OC(=O)c4ccccc4)[C@H]21)C3(C)C [Taxotere]
RTV X ± SD (human A549 NSCLC tumors [1]; 14th day): 11.2 ± 6.0
T/C (%) (human A549 NSCLC tumors [1]; 14th day, TRTV/CRTV×100): 78.3%
Body weight (g) d0 (human A549 NSCLC tumors [1]; d0: time of the first dosage): 20.7 g
TV (X ± SD, mm^3) d0 (human A549 NSCLC tumors [1]; d0: time of the first dosage): 156 ± 20 mm^3
Body weight (g) dn (human A549 NSCLC tumors [1]; [3]): 15.6 g
TV (X ± SD, mm^3) dn (human A549 NSCLC tumors [1]; [3]): 1679 ± 749 mm^3
RTV X ± SD (human A549 NSCLC tumors [2]; 12 mg/kg i.v., d0, 4, 8): 8.65 ± 5.83
T/C (%) (human A549 NSCLC tumors [2]; 12 mg/kg i.v., d0, 4, 8): 39.1* %
T/C (%) (weighing method) (human A549 NSCLC tumors [2]; 12 mg/kg i.v., d0, 4, 8): 51.7* %
Weight of tumors (g) x ± SD (human A549 NSCLC tumors [2]; 12 mg/kg i.v., d0, 4, 8): 1.25 ± 0.71 g
Body weight (g) d0 (human A549 NSCLC tumors [2]; 12 mg/kg i.v., d0, 4, 8): 17.6 g
TV (X ± SD, mm^3) d0 (human A549 NSCLC tumors [2]; 12 mg/kg i.v., d0, 4, 8): 140 ± 24 mm^3
Body weight (g) dn (human A549 NSCLC tumors [2]; 12 mg/kg i.v., d0, 4, 8): 14.1 g
TV (X ± SD, mm^3) dn (human A549 NSCLC tumors [2]; 12 mg/kg i.v., d0, 4, 8): 1149 ± 627 mm^3
RTV X ± SD (human A549 NSCLC tumors [2]; 19 mg/kg i.v., d0, 7): 7.13 ± 6.00
T/C (%) (human A549 NSCLC tumors [2]; 19 mg/kg i.v., d0, 7): 32.2* %
T/C (%) (weighing method) (human A549 NSCLC tumors [2]; 19 mg/kg i.v., d0, 7): 57.9* %
Weight of tumors (g) x ± SD (human A549 NSCLC tumors [2]; 19 mg/kg i.v., d0, 7): 1.09 ± 0.73 g
Body weight (g) d0 (human A549 NSCLC tumors [2]; 19 mg/kg i.v., d0, 7): 17.7 g
TV (X ± SD, mm^3) d0 (human A549 NSCLC tumors [2]; 19 mg/kg i.v., d0, 7): 134 ± 19 mm^3
Body weight (g) dn (human A549 NSCLC tumors [2]; 19 mg/kg i.v., d0, 7): 13.0 g
TV (X ± SD, mm^3) dn (human A549 NSCLC tumors [2]; 19 mg/kg i.v., d0, 7): 902 ± 736 mm^3

CC(=O)O[C@@]12CO[C@@H]1C[C@H](O)[C@@]1(C)[C@@H]3OC(CN4C[C@@H]5C[C@H]4CO5)O[C@@H]3C3=C(C)[C@@H](OC(=O)[C@H](O)[C@@H](NC(=O)OC(C)(C)C)c4ccccc4)C[C@@](O)([C@@H](OC(=O)c4ccccc4)[C@H]21)C3(C)C (stereo partly drawn) [SHR-110008]
RTV X ± SD (human A549 NSCLC tumors [2]; 10 mg/kg i.v., d0, 4, 8): 10.81 ± 1.79
T/C (%) (human A549 NSCLC tumors [2]; 10 mg/kg i.v., d0, 4, 8): 48.8* %
T/C (%) (weighing method) (human A549 NSCLC tumors [2]; 10 mg/kg i.v., d0, 4, 8): 38.6* %
Weight of tumors (g) x ± SD (human A549 NSCLC tumors [2]; 10 mg/kg i.v., d0, 4, 8): 1.59 ± 0.57 g
TV (X ± SD, mm^3) d0 (human A549 NSCLC tumors [2]; 10 mg/kg i.v., d0, 4, 8): 129 ± 20 mm^3
TV (X ± SD, mm^3) dn (human A549 NSCLC tumors [2]; 10 mg/kg i.v., d0, 4, 8): 1383 ± 243 mm^3
RTV X ± SD (human A549 NSCLC tumors [2]; 16 mg/kg i.v., d0, 7): 4.41 ± 2.43
T/C (%) (human A549 NSCLC tumors [2]; 16 mg/kg i.v., d0, 7): 19.9* %
T/C (%) (weighing method) (human A549 NSCLC tumors [2]; 16 mg/kg i.v., d0, 7): 74.1* %
Weight of tumors (g) x ± SD (human A549 NSCLC tumors [2]; 16 mg/kg i.v., d0, 7): 0.67 ± 0.23 g
TV (X ± SD, mm^3) d0 (human A549 NSCLC tumors [2]; 16 mg/kg i.v., d0, 7): 143 ± 38 mm^3
TV (X ± SD, mm^3) dn (human A549 NSCLC tumors [2]; 16 mg/kg i.v., d0, 7): 612 ± 340 mm^3
therapeutic effect compared with Taxotere (human A549 NSCLC tumors [2]; [4]): better than that of Taxotere
toxicity compared with Taxotere (human A549 NSCLC tumors [2]; [4]): better than that of Taxotere
